From patent publication US7026510B2, “Quaternary ammonium salts of omega-aminoalkylamides of r-2-aryl-propionic acids and pharmaceutical compositions containing them” (Dompé S.p.A., priority 2001, dated 2006)

What follows are compounds tested on C5a-induced chemotaxis of PMN (assay: Inhibition of C5a-induced chemotaxis of human PMNs (microchamber)). Details: Homo sapiens, 1 h, compound C = 10^−6 M, C5a 10^−9 M, 60 min at 37° C.
Assay type: cell-based
Description: The compounds of the invention of formula (I) were evaluated in vitro for their ability to inhibit chemotaxis of polymorphonucleate leukocytes (hereinafter referred to as PMNs) and monocytes induced by the fractions of the complement C5a and C5a-desArg. For this purpose, to isolate the PMNs from heparinized human blood, taken from healthy adult volunteers, mononucleates were removed by means of sedimentation on dextran (according to the procedure disclosed by W. J. Ming et al., J. Immunol., 138, 1469, 1987) and red blood cells by a hypotonic solution. The cell vitality was calculated by exclusion with Trypan blue, whilst the ratio of the circulating polymorphonucleates was estimated on the cytocentrifugate after staining with Diff Quick.
Human recombinant fractions C5a and C5a-desArg (Sigma) were used as stimulating agents in the chemotaxis experiments, giving practically identical results.
The lyophilized C5a was dissolved in a volume of HBSS containing 0.2% bovin serum albumin BSA so thus to obtain a stock solution having a concentration of 10^−5 M to be diluted in HBSS to a concentration of 10^−9 M, for the chemotaxis assays.
In the chemotaxis experiments, the PMNs were incubated with the compounds of the invention of formula (I) for 15′ at 37° C. in an atmosphere containing 5% CO2.
The chemotactic activity of the C5a was evaluated on human circulating polymorphonucleates (PMNs) resuspended in HBSS at a concentration of 1.5×10^6 PMNs per mL.
During the chemotaxis assay (according to W. Falket et al., J. Immunol. Methods, 33, 239, 1980) PVP-free filters with a porosity of 5 μm and microchambers suitable for replication were used.
The compounds of the invention in formula (I) were evaluated at a concentration ranging between 10^−6 and 10^−10 M; for this purpose they were added, at the same concentration, both to the lower pores and the upper pores of the microchamber. The wells in the lower part contain the solution of C5a or the simple carrier, those in the upper part contain the suspension of PMNs.
Inhibition of C5a-induced chemotactic activity by the individual compounds of the invention of formula (I) was evaluated by incubating the microchamber for the chemotaxis for 60 min at 37° C. in an atmosphere containing 5% CO2.
By way of example, the inhibition data of the chemotaxis of PMN (C=10^−6 M) of some representative compounds of the invention are reported in the following table: […]

Compound	inhibition at 1 µM
C[C@@H](C(=O)NCCC[N+](C)(C)C)c1ccccc1Nc1c(Cl)cccc1Cl [(R)-{3-{2-[2-(2,6-dichlorophenylamino)-phenyl]-propionylamino}-propyl)-trimethylammonium iodide]	62 ± 3%

Same assay, conditions: compound C = 10^−6 M, C5a 10^−9 M, 60 min at 37° C.

Compound	% INHIBITION (C = 10^−6 M)
CC(C)Cc1ccc([C@@H](C)C(=O)NCCC[N+]2(C)CCCCC2)cc1.[I-] [R(−)-{3-[2-(4′-isobutylphenyl)-propionylamino]-propyl}-1-methyl-piperidinium iodide]	24 ± 4%
CC(C)Cc1ccc([C@@H](C)C(=O)NCCC[N+](C)(C)Cc2ccccc2)cc1.[I-] [R(−)-{3-[2-(4′-isobutylphenyl)-propionylamino]-propyl}-(N-benzyl)-N,N-dimethylammonium iodide]	22 ± 4%
CC(C)Cc1ccc([C@@H](C)C(=O)NCCC[N+](C)(C)CC2CCCCC2)cc1.CS(=O)(=O)[O-] [R(−)-{3-[2-(4′-isobutylphenyl)-propionylamino]-propyl}-N-cyclohexylmethyl-N,N-dimethyl-ammonium metaneosulfonate]	57 ± 4%
CC(C)Cc1ccc([C@@H](C)C(=O)NCCC[N+](C)(C)C)cc1.[I-] [R(−)-{3-[2-(4′-isobutylphenyl)-propionylamino]-propyl}-trimetilammonium iodide]	53 ± 6%
R(−)-2-[(4′-isobutylphenyl)-propionylamino]-1,1-dimethylpiperidinium iodide	18 ± 9%
